Assay results published in patent US6383771B1, “Enzyme-based assay for determining effects of exogenous and endogenous factors on cellular energy” (Birkmayer Pharmaceuticals, priority 1997, dated 2002).
Where “and” joins values, the source holds several entries; their conditions need not be identical. Equal values may be shown once.

How the values were obtained:
[1] = Lactate blood levels after maximum performance; format: in vivo, human
Experimental: (§1) The performance quality, reaction speed and constancy of attention also was tested in these athletes. The performance quality was assessed by the accuracy with which a task was done, i.e., generally in terms of the number of correct identifications of stimuli. Methods used for determination of performance quality were measurement of the continuous attention, vigilance, and the cognitrone program of the Vienna Test system (Dr. Schuhfried Ges.m.b.H., Austria). For examination of the physical performance, a bicycle ergometer (Oxycon-Alpha, Jager Inc., Vienna, Austria) was used. […] The volume and the intensity of the training and exercise program of the athletes was kept constant over that period. […] Data reflecting this is presented below in Tables 2-4.

[2] = Physical performance on the treadmill or bicycle ergometer, soccer players; format: in vivo, human; conditions: 5-mg tablet NADH daily, one month
Experimental: A study similar to that of Example 3 was performed with a European soccer team. […] This increased energy production was confirmed by improved physical performance on the treadmill or bicycle ergometer.

[3] = system: NADH cytochrome C reductase; experiment: NADH cytochrome C reductase assay of whole blood, competitive cyclists before and after oral NADH; format: in vivo, human
Experimental: (§2) Enzyme Preparation A 1-mL portion of a whole blood sample obtained from a subject by venipuncture is preserved by addition of a suitable preserving agent such as that provided by a citrate solution. To a 100-μL sample of this citrate blood is added 900 μL of phosphate balanced salt solution (PBS) at pH =7.8. The resulting 1-mL portion of buffer-diluted citrate blood is sonified with an apparatus such as that available from BRANSON at a duty cycle of 40%, output position 3. Sonification is repeated a total of ten times for 10 seconds each. An additional 1-mL volume of PBS is added to the sonified solution. The PBS-diluted solution represents the enzyme preparation utilized for further assay.
(§3) Substrate preparation A 10-mg sample of cytochrome C, obtainable from conventional sources such as Sigma Chemical, St. Louis is dissolved in 9.6 mL of distilled water. To this is added add 200 μL of 0.1 M NaN3 (sodium azide) and 200 μL of PBS (pH 7.8).
(§4) Performance of the enzyme assay A 900-μL volume of cytochrome C solution (reaction substrate) is pipetted into a 1-mL (PMMA) cuvette. The sample is mixed and allowed to incubate for 15 minutes at 37°. A 100-μL volume of enzyme preparation is added to the sample cuvette and mixed thoroughly. The absorption of reduced cytochrome C at 550 nm is measured exactly 60 seconds after addition of the enzyme preparation to the cuvette. The absorption of cytochrome C at 550 nm is again measured after 5 minutes of incubation at 37° C. after the first measurement. […]
(§5) Determination of enzymatic activity The specific activity of the enzyme species is expressed as nanomoles (nmol) of cytochrome C reduced per μL blood per 5 minutes. For quantitative analyses, a calibration curve with 0, 30, 50, 100, 130 nmol reduced cytochrome C concentrations is prepared. For calculation of the enzymatic activity expressed per blood cell, the number of red blood cells, white blood cells and IS platelets are determined. The cell counts of these cells can be determined from the undiluted citrate blood according to standard procedures. […]

[4] = system: NADH cytochrome C reductase; experiment: NADH cytochrome C reductase assay, rats before and after oral NADH; format: in vivo; design: Enzyme Activity after NADH intake: unit not given here
Experimental: as §2, §3, §4
Determination of enzymatic activity The specific activity of the enzyme species is expressed as nanomoles (nmol) of cytochrome C reduced per μL blood per 5 minutes. For quantitative analyses, a calibration curve with 0, 30, 50, 100, 130 nmol reduced cytochrome C concentrations is prepared. For calculation of the enzymatic activity expressed per blood cell, the number of red blood cells, white blood cells and IS platelets are determined. The cell counts of these cells can be determined from the undiluted citrate blood according to standard procedures.

[5] = system: NADH cytochrome C reductase; experiment: NADH cytochrome C reductase assay of whole blood, soccer players before and after oral NADH; format: in vivo, human; design: key to Enzyme Activity after NADH intake: nmol cytochrome C reduced per µL blood per 5 min
Experimental: as §2, §3, §4, §5

[6] = Performance quality: continuous attention, vigilance, cognitrone (Vienna Test system); format: in vivo, human; design: Continuous attention: DRT (mean value), after NADH / Cognitrone: DRT (mean), after NADH / Vigilance: correct reactions, after NADH / Vigilance: DRT (mean), after NADH: unit not given here
Experimental: The performance quality, reaction speed and constancy of attention also was tested in these athletes. The performance quality was assessed by the accuracy with which a task was done, i.e., generally in terms of the number of correct identifications of stimuli. Methods used for determination of performance quality were measurement of the continuous attention, vigilance, and the cognitrone program of the Vienna Test system (Dr. Schuhfried Ges.m.b.H., Austria). For examination of the physical performance, a bicycle ergometer (Oxycon-Alpha, Jager Inc., Vienna, Austria) was used. […] The volume and the intensity of the training and exercise program of the athletes was kept constant over that period.

[7] = Physical performance by spiro-ergometry (bicycle ergometer); format: in vivo, human; conditions: 4 weeks
Experimental: as §1

complex I = conditions: metabolite of MPTP; cited from earlier work
[8] = system: NADH cytochrome C reductase; conditions: certain brain areas; causing Parkinsonian-like symptoms; cited from earlier work
[9] = after 4 weeks of one 5-mg tablet NADH per day (n = 17)
[10] = after vs before 4 weeks of one 5-mg tablet NADH per day (n = 17)
[11] = rats, per animal, one 2.5-mg tablet NADH daily for three months
[12] = soccer players, per subject, one 5-mg tablet NADH daily for one month
[13] = 4 weeks after intake of one 5-mg tablet NADH per day, n = 17
[14] = 4 weeks of one 5-mg tablet NADH per day vs before, n = 17
[15] = after NADH, 1 tablet NADH (5 mg) per day

NC(=O)C1=CN([C@@H]2O[C@H](COP(=O)(O)OP(=O)(O)OC[C@H]3O[C@@H](n4cnc5c(N)ncnc54)[C@H](O)[C@@H]3O)[C@@H](O)[C@H]2O)C=CC1 [NADH, reduced form of nicotinamide adenine dinucleotide]
Lactate Level 1 min. after maximum performance, after NADH, mean [1, 9]: 9.0 | Lactate Level 3 min. after maximum performance, after NADH, mean [1, 9]: 7.4 | Lactate Level 1 min. after maximum performance, Differences in percent, Dmax [1, 10]: 22.2% | Lactate Level 1 min. after maximum performance, Differences in percent, Dmean [1, 10]: 10.0% | Lactate Level 1 min. after maximum performance, Differences in percent, Dmed [1, 10]: 9.6% | Lactate Level 1 min. after maximum performance, Differences in percent, Dmin [1, 10]: −7.3% | Lactate Level 3 min. after maximum performance, Differences in percent, Dmax [1, 10]: 70.3% | Lactate Level 3 min. after maximum performance, Differences in percent, Dmean [1, 10]: 17.2% | Lactate Level 3 min. after maximum performance, Differences in percent, Dmed [1, 10]: −3.7% | Lactate Level 3 min. after maximum performance, Differences in percent, Dmin [1, 10]: −22.5% | physical performance on the treadmill or bicycle ergometer [2]: improved | % Difference in enzyme activity (after vs before NADH intake) ([3]; competitive cyclists, per subject, one 5-mg tablet NADH daily for one month): 50.00% (4×) and 57.10% and 46.70% (2×) and 76.90% and 47.10% (3×) and 64.30% and 60.00% and 61.50% and 53.30% and 58.30% and 41.20% | Enzyme Activity after NADH intake ([3]; competitive cyclists, per subject, one 5-mg tablet NADH daily for one month, activity expressed as nmol cytochrome C reduced per μL blood per 5 minutes): 2.1 (2×) and 2.2 (3×) and 2.3 (3×) and 2.4 (4×) and 2.5 (3×) and 2.7 and 1.9 | endogenous NADH cytochrome C reductase activity ([3]; in nineteen of the twenty athletes, 5-mg tablet daily, one month): increase | enzymatic activity ([4]; all test animals (rats), 2.5-mg tablet daily, three months): increase | % Difference in enzyme activity (after vs before NADH intake) [4, 11]: 17.1% and 13.5% (2×) and 11.4% and 7.5% and 13.8% (2×) and 20.0% and 9.6% and 12.5% | Enzyme Activity after NADH intake [4, 11]: 0.41 (3×) and 0.42 (2×) and 0.39 and 0.43 (2×) and 0.45 (2×) | endogenous NADH cytochrome C reductase activity ([5]; fifteen soccer players, 5-mg tablet daily, one month): increase | % Difference in enzyme activity (after vs before NADH intake) [5, 12]: 20.00% (4×) and 8.30% and −8.30% and 0.00% (2×) and 33.00% and 16.00% and 7.10% (2×) and 162% and 75% and 6.60% | Enzyme Activity after NADH intake [5, 12]: 1.2 and 1.3 (2×) and 1.6 (5×) and 1.4 (2×) and 1.1 and 1.5 (2×) and 2.1 (2×) | Cognitrone: Correct reactions, after NADH [6, 13]: 190.10 | Cognitrone: DRT (mean), after NADH [6, 13]: 2.09 | Continuous attention: DRT (mean value), after NADH [6, 13]: 0.81 | Continuous attention: Dispersion, after NADH [6, 13]: 0.17 | Continuous attention: correct reactions, after NADH [6, 13]: 118.80 | Continuous attention: missed reactions, after NADH [6, 13]: 1.24 | Vigilance: DRT (mean), after NADH [6, 13]: 0.55 | Vigilance: Dispersion, after NADH [6, 13]: 0.11 | Vigilance: correct reactions, after NADH [6, 13]: 97.88 | Vigilance: incorrect reactions, after NADH [6, 13]: 1.24 | Cognitrone: Correct reactions, % alteration per person [6, 14]: 2.98% | Cognitrone: DRT (mean), % alteration per person [6, 14]: −16.05% | Cognitrone: working time (min), % alteration per person [6, 14]: −14.36% | Continuous attention: DRT (mean value), % alteration per person [6, 14]: −6.48% | Continuous attention: Dispersion, % alteration per person [6, 14]: −11.59% | Continuous attention: correct reactions, % alteration per person [6, 14]: 1.42% | Continuous attention: incorrect reactions, absolute alteration per person [6, 14]: −1.12 | Continuous attention: missed reactions, absolute alteration per person [6, 14]: −1.41 | Vigilance: DRT (mean), % alteration per person [6, 14]: 7.79% | Vigilance: Dispersion, % alteration per person [6, 14]: 4.79% | Vigilance: correct reactions, % alteration per person [6, 14]: 0.01% | Vigilance: incorrect reactions, absolute alteration per person [6, 14]: −0.65 | Vigilance: missed reactions, absolute alteration per person [6, 14]: 0.24 | mental performance ([6]; the nineteen athletes with increased enzyme activity, 5 mg NADH daily, 4 weeks): improved | Hfmax, mean [7, 15]: 180.00 | Rmax, mean [7, 15]: 1.00 | VO2Max, mean [7, 15]: 4.98 | VO2Max/kg, mean [7, 15]: 71.20 | Vmax, mean [7, 15]: 163.00 | Wmax (maximum performance), mean [7, 15]: 340.00 | Wmax/kg, mean [7, 15]: 4.90 | physical performance ([7]; the nineteen athletes with increased enzyme activity, 5 mg NADH daily): improved

C[n+]1ccc(-c2ccccc2)cc1 [MPP^+, 1-methyl-4-phenyl-pyridine]
effect on complex I in the ETC (complex I): inhibits

CN1CC=C(c2ccccc2)CC1 [MPTP, 1-methyl-4-phenyl-1,2,3,6-tetrahydropyridine]
effect on NADH cytochrome C reductase [8]: irreversibly inhibits and destroys
